Results from patent US20230033360A1, “COMPOUNDS AS CD73 INHIBITORS” (BioArdis LLC, priority 2019, published 2023).
pIC50: −log10 of the molar value.

Molecular target: T1, Recombinant Human 5′-Nucleotidase (CD73) (Homo sapiens, UniProt P21589)
T1 construct: CHO derived CD73 (Trp27-Lys547), with a C-terminal 6-His tag; 6-His (C); purchased R&D 5795-EN; host or cells: CHO
T1 sequence (P21589 27-547): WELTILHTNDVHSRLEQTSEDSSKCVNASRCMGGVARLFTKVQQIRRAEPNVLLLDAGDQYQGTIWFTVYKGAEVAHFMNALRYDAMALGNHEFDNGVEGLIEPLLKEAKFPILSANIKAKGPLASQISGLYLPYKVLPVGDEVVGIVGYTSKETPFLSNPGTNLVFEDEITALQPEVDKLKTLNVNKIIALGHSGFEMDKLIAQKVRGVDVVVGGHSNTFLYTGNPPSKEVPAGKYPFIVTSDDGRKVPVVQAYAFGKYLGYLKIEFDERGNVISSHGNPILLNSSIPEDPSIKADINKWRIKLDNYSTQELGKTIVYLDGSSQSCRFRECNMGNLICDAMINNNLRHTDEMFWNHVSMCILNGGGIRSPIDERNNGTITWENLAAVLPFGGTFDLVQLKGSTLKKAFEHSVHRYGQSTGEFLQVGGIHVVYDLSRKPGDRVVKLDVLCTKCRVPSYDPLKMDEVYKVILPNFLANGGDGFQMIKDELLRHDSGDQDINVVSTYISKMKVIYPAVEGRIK
Assay: CD73 Enzyme Assay (PiColorLock inorganic phosphate detection, AMP substrate)
Assay type: biochemical
Settings: human CD73 0.5 nM, AMP 30 μM, 20 min at 37° C., absorbance 635 nm; read-out: Potency (IC50)
Description: Soluble recombinant CD73 catalyzes the conversion of adenosine monophosphate (AMP) to adenosine and inorganic phosphate. The phosphate detection reagent, PiColorLock™ (Innova Bioscience, Cat #303-0125) is based on the change in absorbance of the dye malachite green in the presence of inorganic phosphate (Pi) and this property can be exploited to measure any enzyme that generates Pi. Recombinant Human 5′-Nucleotidase (CD73) (R&D #5795-EN, CHO derived CD73 (Trp27-Lys547), with a C-terminal 6-His tag) was used in the enzymatic assay. This assay, run in a 384-well plate format (Corning® NBS™ 384 well plates, Cat #3640), is a generic method for measuring inorganic phosphate. The basic assay procedure involves two steps: 1) Enzyme reaction: The CD73 enzyme (R&D #5795-EN) is incubated in the presence or absence of compounds. AMP (sigma, cat #01930) is added to start the […] reaction. 2) Detection step: Gold mix is added to the assay system, then stabilizers are added. After incubation the absorbance of the solution is read at OD 635 nm. The recorded OD signal is proportional to the enzyme activity.
Briefly, 25 μl human CD73 (0.5 nM final concentration) in the enzymatic buffer solutions (20 mM Tris, 25 mM NaCl, 1 mM MgCl2, pH 7.5, 0.005% Tween-20) were mixed with various concentrations of the test compound (dissolved in 100% DMSO). These solutions were incubated for 15 min at 25° C., and subsequently 25 μl AMP (30 μM final concentration) was added to start the reaction. The final reaction mixture of enzyme-substrate-compound was incubated for 20 min at 37° C. Meanwhile ‘Gold mix’ was prepared shortly before use by adding 1/100 vol. of accelerator to the PiColorLock™ Gold reagent. 12 μL/well of the ‘Gold mix’ was added to assay plate containing 50 μL enzyme reaction buffer and incubated at 25° C. for 5 min. 5 μL/well stabilizer was added to the assay plate and incubated at 25° C. for 30 min. The absorbance of the well solutions was measured at 635 nm on a Spark 10M instrument (TECAN).
The percent (%) inhibition at each concentration of a compound was calculated relative to the […] value in the Max and Min control wells contained within each assay plate. The Max control wells contained enzyme and substrate as 0% inhibition, and the Min control wells only contained substrate without enzyme as 100% inhibition. The concentrations and percent inhibition values for a test compound are plotted and the concentration of the compound required to achieve 50% inhibition (IC50) was determined with a four-parameter logistic dose response equation.

Structure (SMILES)	pIC50
O=P(O)(O)CP(=O)(O)OC[C@H]1O[C@@H](c2ncc3c(N4CCCC4)cc(Cl)nn23)[C@H](O)[C@@H]1O [Example S38, [({[(2R,3S,4R,5S)-5-[2-chloro-4-(pyrrolidin-1-yl)imidazo[1,5-b]pyridazin-7-yl]-3,4-dihydroxyoxolan-2-yl]methoxy}(hydroxy)phosphoryl)methyl]phosphonic acid]	8.00 to 9.00
O=P(O)(O)CP(=O)(O)OC[C@H]1O[C@@H](c2ncc3c(N4CC5CC5C4)cc(Cl)nn23)[C@H](O)[C@@H]1O (stereo partly drawn) [Example S39, (((((2R,3S,4R,5S)-5-(4-(3-azabicyclo[3.1.0]hexan-3-yl)-2-chloroimidazo[1,5-b]pyridazin-7-yl)-3,4-dihydroxytetrahydrofuran-2-yl)methoxy)(hydroxy)phosphoryl)methyl)phosphonic acid]	8.00 to 9.00
O=P(O)(O)CP(=O)(O)OC[C@H]1O[C@@H](c2ncc3c(N4CCc5ccccc54)cc(Cl)nn23)[C@H](O)[C@@H]1O [Example S40, [({[(2R,3S,4R,5S)-5-[2-chloro-4-(2,3-dihydroindol-1-yl)imidazo[1,5-b]pyridazin-7-yl]-3,4-dihydroxyoxolan-2-yl]methoxy}(hydroxy)phosphoryl)methyl]phosphonic acid]	8.00 to 9.00
O=P(O)(O)CP(=O)(O)OC[C@H]1O[C@@H](c2csc3c(N4CC5CCCC5C4)nc(Cl)nc23)[C@H](O)[C@@H]1O (stereo partly drawn) [Example S41, [({[(2R,3S,4R,5S)-5-(2-chloro-4-{hexahydro-1H-cyclopenta[c]pyrrol-2-yl}thieno[3,2-d]pyrimidin-7-yl)-3,4-dihydroxyoxolan-2-yl]methoxy}(hydroxy)phosphoryl)methyl]phosphonic acid]	7.00 to 8.00
O=P(O)(O)CP(=O)(O)OC[C@H]1O[C@@H](c2csc3c(N4CCCC4)cc(Cl)nc23)[C@H](O)[C@@H]1O [Example S42, [({[(2R,3S,4R,5S)-5-[5-chloro-7-(pyrrolidin-1-yl)thieno[3,2-b]pyridin-3-yl]-3,4-dihydroxyoxolan-2-yl]methoxy}(hydroxy)phosphoryl)methyl]phosphonic acid]	8.00 to 9.00
O=P(O)(O)CP(=O)(O)OC[C@H]1O[C@@H](c2csc3c(N4CC5CCCC5C4)cc(Cl)nc23)[C@@H](F)[C@@H]1O (stereo partly drawn) [Example S43, (((((2R,3R,4S,5S)-5-(5-chloro-7-(hexahydrocyclopenta[c]pyrrol-2 (1H)-yl)thieno[3,2-b]pyridin-3-yl)-4-fluoro-3-hydroxytetrahydrofuran-2-yl)methoxy)(hydroxy)phosphoryl)methyl)phosphonic acid]	7.00 to 8.00
O=P(O)(O)CP(=O)(O)OC[C@H]1O[C@@H](c2csc3c(N4CC5CCCC5C4)nc(Cl)nc23)[C@@H](F)[C@@H]1O (stereo partly drawn) [Example S44, [({[(2R,3R,4S,5S)-5-(2-chloro-4-{hexahydro-1H-cyclopenta[c]pyrrol-2-yl}thieno[3,2-d]pyrimidin-7-yl)-4-fluoro-3-hydroxyoxolan-2-yl]methoxy}(hydroxy)phosphoryl)methyl]phosphonic acid]	7.00 to 8.00
